Literature values, collected in patent US20200229407A1 (priority 2017, published 2020).

How the values were obtained:
[1] = test system: prion replication in neuroblastoma cells
[2] = test system: cell-surface PrP
[3] = test system: scrapie agent; conditions: mouse, in vivo

| Compound | prion replication [1] | cell-surface PrP [2] | incubation period [3] |
| --- | --- | --- | --- |
| COc1ccc(CCN2CCC(Nc3nc4ccccc4n3Cc3ccc(F)cc3)CC2)cc1 [astemizole] | inhibiting prion replication | reducing cell-surface PrP |  |
| C=CC[C@@H]1/C=C(\C)C[C@H](C)C[C@H](OC)[C@H]2O[C@@](O)(C(=O)C(=O)N3CCCC[C@H]3C(=O)O[C@H](/C(C)=C/[C@@H]3CC[C@@H](O)[C@H](OC)C3)[C@H](C)[C@@H](O)CC1=O)[C@H](C)C[C@@H]2OC [tacrolimus] | inhibiting prion replication | reducing cell-surface PrP |  |
| pentosan polysulphate [PPS] |  |  | prolonged the incubation period |
